One may read the Kd as the constant that tells how readily two partners part at equilibrium. A lower Kd goes with higher affinity.

Among the data in PMC2996728 (Archives of biochemistry and biophysics, 2009) are Kd values, retold here.

In this assay the target is T1, Microsomal glutathione transferase 1 (MGST1) (Rattus norvegicus, UniProt P08011).
T1 sequence (P08011 2-155): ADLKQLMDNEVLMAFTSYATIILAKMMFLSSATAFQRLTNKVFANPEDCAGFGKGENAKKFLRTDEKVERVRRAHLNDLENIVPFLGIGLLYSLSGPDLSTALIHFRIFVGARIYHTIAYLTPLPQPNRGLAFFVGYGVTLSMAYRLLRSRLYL
Kind of assay: equilibrium dialysis. It counts as binding. (In equilibrium dialysis free small molecules cross a membrane that holds back macromolecules.)

On to `N[C@@H](CCC(=O)N[C@@H](CSc1ccc([N+](=O)[O-])cc1[N+](=O)[O-])C(=O)NCC(=O)O)C(=O)O` [GSDNB, 1-S-glutathionyl-2,4-dinitrobenzene], for which the Kd came out at 320 ± 50 µM.
